Key:
[1] = biological target: Human recombinant Acetyl-CoA Carboxylase 2 (ACC2) (Homo sapiens, UniProt O00763); assay: Assay Y: ACC2 inhibition, inorganic phosphate (Malachite Green); format: biochemical; settings: Assay Y: room temperature, 3 hr, 15 min preincubation
Description: (§1) Preincubation of 6 μL enzyme together with 0.3 μL compound for 15 min was done before the reaction was initiated by the addition of 4 μL substrate. […] After 3 hr the reaction was stopped by addition of 60 μL of water followed by 30 μL Malachite Green solution. The Malachite Green solution was prepared by mixing 16.4 mL ammonium molybdate solution (7.5%), 1.64 mL Tween (11%) with 82 mL Malachite Green/H2SO4-solution (0.7 g Malachite Green to 1000 mL of 10% (v/v) H2SO4). Plates were left for 10 min at room temperature before reading the absorbance at 670 nm. All compounds were tested in triplicate at 10 different concentrations. Control compound (0, 50 and 100% effect) was included on each plate. […] An IC50 value was derived by non-linear regression curve fitting using the following equation: […]))) where A is the non-specific binding, B is the total binding, C is the IC50 and D is the slope. Saturation binding Kd and Bmax were derived using the equation y=((B1 max*x)/(Kd+x)).

[2] = biological target: Human recombinant Acetyl-CoA Carboxylase 1 (ACC1) (Homo sapiens, UniProt Q13085); assay: Assay Y: ACC1 inhibition, inorganic phosphate (Malachite Green); format: biochemical; settings: Assay Y: room temperature, 3 hr, 15 min preincubation
Description: as §1

Sequence of Human recombinant Acetyl-CoA Carboxylase 2 (ACC2) (O00763 whole entry): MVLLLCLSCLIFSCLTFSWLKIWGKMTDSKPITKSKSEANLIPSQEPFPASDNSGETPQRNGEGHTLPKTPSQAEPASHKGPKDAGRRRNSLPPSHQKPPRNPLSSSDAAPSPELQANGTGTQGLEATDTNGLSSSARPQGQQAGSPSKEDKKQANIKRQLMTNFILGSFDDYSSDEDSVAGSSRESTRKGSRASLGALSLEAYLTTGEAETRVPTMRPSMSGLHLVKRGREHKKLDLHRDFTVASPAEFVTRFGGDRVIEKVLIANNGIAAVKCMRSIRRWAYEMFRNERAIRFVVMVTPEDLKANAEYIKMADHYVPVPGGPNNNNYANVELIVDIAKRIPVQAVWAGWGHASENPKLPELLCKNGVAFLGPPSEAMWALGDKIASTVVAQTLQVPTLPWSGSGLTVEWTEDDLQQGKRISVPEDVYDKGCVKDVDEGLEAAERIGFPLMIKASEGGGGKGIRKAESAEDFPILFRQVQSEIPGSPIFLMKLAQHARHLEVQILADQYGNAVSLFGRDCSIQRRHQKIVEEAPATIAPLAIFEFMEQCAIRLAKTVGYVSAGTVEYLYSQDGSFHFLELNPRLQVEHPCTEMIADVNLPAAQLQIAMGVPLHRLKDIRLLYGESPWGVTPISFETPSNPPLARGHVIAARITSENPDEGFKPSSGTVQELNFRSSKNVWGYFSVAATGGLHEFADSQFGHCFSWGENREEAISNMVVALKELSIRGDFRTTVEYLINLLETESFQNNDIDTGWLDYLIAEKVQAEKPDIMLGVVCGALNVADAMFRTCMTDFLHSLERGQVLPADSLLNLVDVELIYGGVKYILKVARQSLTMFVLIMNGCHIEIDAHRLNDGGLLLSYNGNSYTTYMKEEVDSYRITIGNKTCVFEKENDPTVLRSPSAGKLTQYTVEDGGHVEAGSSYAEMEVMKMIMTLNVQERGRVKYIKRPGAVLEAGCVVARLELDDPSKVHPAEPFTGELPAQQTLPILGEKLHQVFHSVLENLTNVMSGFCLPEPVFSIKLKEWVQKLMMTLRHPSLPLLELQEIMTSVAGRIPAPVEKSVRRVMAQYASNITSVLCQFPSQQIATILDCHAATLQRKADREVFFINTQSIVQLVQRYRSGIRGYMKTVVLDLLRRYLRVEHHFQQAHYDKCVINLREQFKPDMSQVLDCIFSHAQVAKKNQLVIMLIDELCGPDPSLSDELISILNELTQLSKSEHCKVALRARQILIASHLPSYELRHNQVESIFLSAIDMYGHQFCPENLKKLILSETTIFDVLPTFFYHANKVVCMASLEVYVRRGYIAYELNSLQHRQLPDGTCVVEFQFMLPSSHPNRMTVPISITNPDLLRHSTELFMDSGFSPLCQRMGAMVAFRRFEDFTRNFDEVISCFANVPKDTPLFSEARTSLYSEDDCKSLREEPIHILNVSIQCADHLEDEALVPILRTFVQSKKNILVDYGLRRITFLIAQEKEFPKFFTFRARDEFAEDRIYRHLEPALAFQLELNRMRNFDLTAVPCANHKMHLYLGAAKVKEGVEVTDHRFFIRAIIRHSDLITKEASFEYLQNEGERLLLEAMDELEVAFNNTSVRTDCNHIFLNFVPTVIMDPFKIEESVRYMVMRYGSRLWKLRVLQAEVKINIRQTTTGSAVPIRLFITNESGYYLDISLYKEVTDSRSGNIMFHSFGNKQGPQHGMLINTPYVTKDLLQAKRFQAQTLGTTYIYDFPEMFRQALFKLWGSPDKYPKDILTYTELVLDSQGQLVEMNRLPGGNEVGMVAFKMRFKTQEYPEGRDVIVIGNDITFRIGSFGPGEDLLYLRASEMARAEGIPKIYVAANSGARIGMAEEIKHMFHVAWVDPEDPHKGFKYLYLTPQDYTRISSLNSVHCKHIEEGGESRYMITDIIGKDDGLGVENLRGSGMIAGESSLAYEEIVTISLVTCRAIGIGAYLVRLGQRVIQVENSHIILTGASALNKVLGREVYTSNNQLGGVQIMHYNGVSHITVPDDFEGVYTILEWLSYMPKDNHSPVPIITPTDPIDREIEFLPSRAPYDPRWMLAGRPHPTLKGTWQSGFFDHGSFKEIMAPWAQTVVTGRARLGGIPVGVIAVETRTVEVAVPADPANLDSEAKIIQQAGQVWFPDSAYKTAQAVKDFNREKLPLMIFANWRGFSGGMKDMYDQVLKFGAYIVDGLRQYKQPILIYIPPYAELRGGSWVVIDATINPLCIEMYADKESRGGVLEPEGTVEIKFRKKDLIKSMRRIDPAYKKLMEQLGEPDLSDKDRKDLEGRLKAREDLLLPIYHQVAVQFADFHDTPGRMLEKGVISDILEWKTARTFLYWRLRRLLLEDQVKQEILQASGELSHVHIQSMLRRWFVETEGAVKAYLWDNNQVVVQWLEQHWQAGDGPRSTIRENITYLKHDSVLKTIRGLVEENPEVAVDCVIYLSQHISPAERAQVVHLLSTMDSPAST

SMILES | IC50 [1] [nM] | IC50 [2] [nM]
CC(C)(C)OC(=O)NC[C@H]1CC[C@H](CNC(=O)c2cc(-c3cccc(CC(=O)O)c3)nc3ccccc23)CC1 [Example 40, [3-(4-{[(trans-4-{[(tert-Butoxycarbonyl)amino]methyl}cyclohexyl)methyl]-carbamoyl}quinolin-2-yl)phenyl]acetic Acid] | 1000 | 8640
CCOC(=O)NC[C@H]1CC[C@H](CNC(=O)c2cc(-c3cnccn3)nc3ccccc23)CC1 [Example 26, Ethyl {[trans-4-({[(2-pyrazin-2-ylquinolin-4-yl)carbonyl]amino}methyl)cyclohexyl]-methyl}carbamate] | 4030 | > 20000
CC(C)(C)OC(=O)NC[C@H]1CC[C@H](CNC(=O)c2cc(-c3ccc(C(F)(F)F)cc3)nc3ccccc23)CC1 [Example 12, tert-Butyl [(trans-4-{[({2-[4-(trifluoromethyl)phenyl]quinolin-4-yl}carbonyl)amino]-methyl}cyclohexyl)methyl]carbamate] | 560 | > 20000
CC(C)(C)OC(=O)NC[C@H]1CC[C@H](CNC(=O)c2cc(-c3ccncc3)nc3ccccc23)CC1 [Example 7, tert-butyl {[trans-4-({[(2-pyridin-4-ylquinolin-4-yl)carbonyl]amino}methyl)cyclohexyl]methyl}-carbamate] | 210 | 1030
CC(C)(C)OC(=O)NC[C@H]1CC[C@H](CNC(=O)c2cc(-c3cccc(CN)c3)nc3ccccc23)CC1 [Example 39, tert-Butyl [(trans-4-{[({2-[3-(aminomethyl)phenyl]quinolin-4-yl}carbonyl)amino]-methyl}cyclohexyl)methyl]carbamate] | 20 | 220
CCOC(=O)NC[C@H]1CC[C@H](CNC(=O)c2cc(-c3ccccc3OC)nc3ccccc23)CC1 [Example 31, Ethyl ({trans-4-[({[2-(2-methoxyphenyl)quinolin-4-yl]carbonyl}amino)methyl]-cyclohexyl}methyl)carbamate] | 3560 | > 20000
COc1cc(C(=O)NC[C@H]2CC[C@H](CNC(=O)OC(C)(C)C)CC2)cc(-c2ccc(CN)cc2)n1 [Example 36, tert-Butyl ({trans-4-[({2-[4-(aminomethyl)phenyl]-6-methoxyisonicotinoyl}-amino)methyl]cyclohexyl}methyl)carbamate] | 1590 | 3950
CCOC(=O)NC[C@H]1CC[C@H](CNC(=O)c2cc(-c3ccc(SC)cc3)nc3ccccc23)CC1 [Example 29, Ethyl [(trans-4-{[({2-[4-(methylthio)phenyl]quinolin-4-yl}carbonyl)amino]methyl}-cyclohexyl)methyl]carbamate] | 1260 | 4040
CC(C)(C)COC(=O)NC[C@H]1CC[C@H](CNC(=O)c2cc(-c3ccncc3)nc3ccccc23)CC1 [Example 55, 2,2-Dimethylpropyl {[trans-4-({[(2-pyridin-4-ylquinolin-4-yl)carbonyl]amino}methyl)-cyclohexyl]methyl}carbamate] | 280 | 1300
CC(C)(C)OC(=O)NC[C@H]1CC[C@H](CNC(=O)c2ccnc(-c3ccccc3)c2)CC1 [Example 41, tert-Butyl [(trans-4-{[(2-phenylisonicotinoyl)amino]methyl}cyclohexyl)methyl]-carbamate] | 4540 | 6630

Next, values leading:

IC50 [1] [nM] | IC50 [2] [nM] | SMILES
2450 | > 20000 | CN(C[C@H]1CC[C@H](CNC(=O)OC(C)(C)C)CC1)S(=O)(=O)c1ccc2ccccc2c1 [Example 88, tert-Butyl [(trans-4-{[methyl(2-naphthylsulfonyl)amino]methyl}cyclohexyl)methyl]-carbamate]
70 | 1960 | CC(C)(C)OC(=O)NC[C@H]1CC[C@H](CNC(=O)c2cc(N3CCC(CCO)CC3)nc3ccccc23)CC1 [Example 189, tert-butyl [(trans-4-{[({2-[4-(2-hydroxyethyl)piperidin-1-yl]quinolin-4-yl}carbonyl)amino]methyl}cyclohexyl)methyl]carbamate]
330 | 2380 | CN1CCN(c2ccc(-c3cc(C(=O)NC[C@H]4CC[C@H](CNC(=O)OC5CCOC5)CC4)c4ccccc4n3)cn2)CC1 (relative stereo) [Example 114, Tetrahydrofuran-3-yl-[(trans-4-{[({2-[6-(4-methylpiperazin-1-yl)pyridin-3-yl]quinolin-4-yl}carbonyl)amino]methyl}cyclohexyl)methyl]carbamate]
70 | 1370 | CC(C)(C)OC(=O)NC[C@H]1CC[C@H](CNC(=O)c2cc(-c3cccc(CNS(C)(=O)=O)c3)nc3ccccc23)CC1 [Example 98, tert-Butyl ({trans-4-[({[2-(3-{[(methylsulfonyl)amino]methyl}phenyl)quinolin-4-yl]carbonyl}amino)methyl]cyclohexyl}methyl)carbamate]
210 | 1710 | CN1CCN(c2ccc(-c3cc(C(=O)NC[C@H]4CC[C@H](CNC(=O)OC5CCOCC5)CC4)c4ccccc4n3)cn2)CC1 [Example 109, Tetrahydro-2H-pyran-4-yl [(trans-4-{[({2-[6-(4-methylpiperazin-1-yl)pyridin-3-yl]quinolin-4-yl}carbonyl)amino]methyl}cyclohexyl)methyl]carbamate]
380 | 3800 | CN1CCN(c2ccc(-c3cc(C(=O)N[C@H]4CC[C@H](CNC(=O)OC(C)(C)C)CC4)c4ccccc4n3)cn2)CC1 [Example 204, tert-Butyl ({trans-4-[({2-[6-(4-methylpiperazin-1-yl)pyridin-3-yl]quinolin-4-yl}carbonyl)amino]cyclohexyl}methyl)carbamate]
50 | 260 | CC(C)(C)OC(=O)NC[C@H]1CC[C@H](CNC(=O)c2cc(-c3ccc(CN)cc3)nc3ccccc23)CC1 [Example 92, tert-Butyl [(trans-4-{[({2-[4-(aminomethyl)phenyl]quinolin-4-yl}carbonyl)amino]-methyl}cyclohexyl)methyl]carbamate acetate]
2770 | 3070 | CCOC(=O)NC[C@H]1CC[C@H](CNC(=O)c2cc(-c3ccccc3)nc3ccccc23)CC1 [Example 62, Ethyl {[trans-4-({[(2-phenylquinolin-4-yl)carbonyl]amino}methyl)cyclohexyl]methyl}-carbamate]
70 | 430 | CC(C)(C)OC(=O)NC[C@H]1CC[C@H](CNC(=O)c2cc(-c3ccc(CNS(C)(=O)=O)cc3)nc3ccccc23)CC1 [Example 106, tert-Butyl ({trans-4-[({[2-(4-{[(methylsulfonyl)amino]methyl}phenyl)quinolin-4-yl]carbonyl}amino)methyl]cyclohexyl}methyl)carbamate]
3620 | 9320 | CC(=O)Nc1nc(C)sc1S(=O)(=O)NC[C@H]1CC[C@H](CNC(=O)OC(C)(C)C)CC1 [Example 77, tert-Butyl {[trans-4-({[(4-acetamido-2-methyl-1,3-thiazol-5-yl)sulfonyl]amino}methyl)-cyclohexyl]methyl}carbamate]
380 | 2710 | COC[C@H](C)OC(=O)NC[C@H]1CC[C@H](CNC(=O)c2cc(-c3ccc(N4CCN(C)CC4)nc3)nc3ccccc23)CC1 (stereo in doubt) [Example 112, (1S)-2-Methoxy-1-methylethyl[(trans-4-{[({2-[6-(4-methylpiperazin-1-yl)pyridin-3-yl]quinolin-4-yl}carbonyl)amino]methyl}cyclohexyl)methyl]carbamate]

Reference: patent US20090306133A1, “New Acetyl Coenzyme A Carboxylase (ACC) Inhibitors And Uses In Treatments Of Obesity And Diabetes Mellitus - 087” (ASTRAZENECA AB, priority 2007, published 2009)
